Assay: Topical application of the preparation to affected skin areas of plaque psoriasis patients
Type: in vivo, human
Details: twice daily, six to twelve weeks
Text: The topical application using the preparation herein for treatment of psoriasis according to the present invention, to accelerate healing, merely requires a once to twice daily application of the formed preparation to the affected areas for a period of six to twelve weeks. Generally, no special precautions are required other than the general precautions which accompany the topical application of topical steroids to the skin. Evaluation of the effectiveness of the preparation herein, is by simple examination of the patient and reduction of rash and other skin symptoms, and by changes in the amounts of itching present.
Topical application of the preparation for plaque psoriasis treatment herein to affected skin areas, on a twice, daily basis, generally produces beneficial effects on plaque psoriasis when applied over a period of time between six to twelve weeks. […] The clearing noted lasting for a prolonged period after treatment. […]
In a regimen for treatment of plaque psoriasis patients, the preparation herein is mixed and provided to the patient for topical application twice daily for a period of six to twelve weeks, depending on the individual patient results which may be evaluated after each four to six week period by an examination of the areas of body of the patient, and the reduction or total clearing of rash and other skin symptoms in those area. […]

CCC(=O)O[C@]1(C(=O)CCl)[C@@H](C)C[C@H]2[C@@H]3CCC4=CC(=O)C=C[C@]4(C)[C@@]3(F)[C@@H](O)C[C@@]21C [clobetasol propionate]
outcome of topical treatment of plaque psoriasis (clearing of affected areas), in words: reduction or elimination of the plaque psoriasis
